Laboratory results from ChEMBL document CHEMBL1201862, “PubChem BioAssay data set” (2004).
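Tested at 5 concentrations; 48 h exposure; 96-well plates; endpoints linearly interpolated, else capped at highest concentration. Abbreviation: GI50, concentration required for 50% inhibition of growth.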 Calls of active or inactive are those of the source. No stated cut-off is given here; in the data, active = GI50 up to about 1.1 µM and inactive = higher.

Assays:
Test in all cases: NCI anticancer screen, dose series, 48 h
[1] = system: HCT-15
[2] = system: U-251
[3] = system: SNB-19
[4] = system: COLO 205
[5] = system: SN12C
[6] = system: NCI-H23
[7] = system: HOP-18
[8] = system: CCRF-CEM
[9] = system: RXF 393
[10] = system: EKVX
[11] = system: OVCAR-5
[12] = system: TK-10
[13] = system: KM12
[14] = system: NCI-H226
[15] = system: OVCAR-8

Row | SMILES | GI50 [1] | GI50 [2] | GI50 [3] | GI50 [4] | GI50 [5] | GI50 [6] | GI50 [7] | GI50 [8] | GI50 [9] | GI50 [10] | GI50 [11] | GI50 [12] | GI50 [13] | GI50 [14] | GI50 [15]
1 | O=C1OC2CCCC[C@@H]2C2C[C@]34CCCCC3[C@@H](C(=O)O4)C12 (stereo partly specified) | > 100 µM | > 100 µM (inactive) | > 100 µM (inactive) | > 100 µM (inactive) | > 100 µM (inactive) | > 100 µM (inactive) | > 100 µM (inactive) | > 100 µM (inactive) | > 100 µM (inactive) | > 100 µM (inactive) | > 100 µM (inactive) | > 100 µM (inactive) | > 100 µM (inactive) | > 100 µM (inactive) | > 100 µM (inactive)
2 | CC(Cl)(/C=C/Cl)C(Cl)/C=C/C(Cl)(CCl)CBr (stereo unspecified) | 0.308 µM | 3.72 µM (inactive) | 14.1 µM (inactive) | 2.01 µM (inactive) | 3.18 µM (inactive) | 1.88 µM (inactive) | 2.52 µM (inactive) | 0.305 µM (active) | 1.45 µM (inactive) | 31.8 µM (inactive) | 16 µM (inactive) | 7.45 µM (inactive) | 6.64 µM (inactive) | 10.2 µM (inactive) | 1.71 µM (inactive)
3 | c1ccc2c(c1)oc1ccc3nsnc3c12 | > 100 µM | – | > 100 µM (inactive) | > 100 µM (inactive) | – | > 100 µM (inactive) | > 100 µM (inactive) | > 100 µM (inactive) | 71 µM (inactive) | 31.3 µM (inactive) | > 100 µM (inactive) | > 10 µM (inactive) | 56 µM (inactive) | 51.6 µM (inactive) | –
4 | O=C1CC(C[C@H](O)C2CCCCC2O)CC(=O)N1Cc1ccccc1 (stereo partly specified) | – | > 100 µM (inactive) | > 100 µM (inactive) | > 100 µM (inactive) | > 100 µM (inactive) | > 100 µM (inactive) | > 100 µM (inactive) | > 100 µM (inactive) | > 100 µM (inactive) | > 100 µM (inactive) | > 100 µM (inactive) | > 100 µM (inactive) | > 100 µM (inactive) | > 100 µM (inactive) | > 100 µM (inactive)
5 | C[N+]1(C)C/C(=C\c2ccccc2)C(=O)/C(=C/c2ccccc2)C1 | > 100 µM | 31.4 µM (inactive) | – | > 100 µM (inactive) | 18.5 µM (inactive) | > 100 µM (inactive) | > 100 µM (inactive) | 49 µM (inactive) | > 100 µM (inactive) | < 0.01 µM (active) | > 100 µM (inactive) | > 100 µM (inactive) | > 100 µM (inactive) | > 100 µM (inactive) | > 100 µM (inactive)
6 | NCCNCCNCc1c2ccccc2c(CNCCNCCN)c2ccccc12 | > 100 µM | 51.6 µM (inactive) | – | 52.1 µM (inactive) | 58.2 µM (inactive) | > 100 µM (inactive) | 49.8 µM (inactive) | 78.5 µM (inactive) | 40.9 µM (inactive) | > 100 µM (inactive) | > 100 µM (inactive) | > 100 µM (inactive) | 40.4 µM (inactive) | 50.1 µM (inactive) | 47.9 µM (inactive)
7 | c1ccc(C2CC(c3ccc4ccccc4c3)=Nc3ccccc3S2)cc1 (stereo unspecified) | – | 17.3 µM (inactive) | 19.1 µM (inactive) | – | 16.7 µM (inactive) | 14.8 µM (inactive) | 19.4 µM (inactive) | 26.1 µM (inactive) | 19.1 µM (inactive) | 23.2 µM (inactive) | 21.8 µM (inactive) | 22.3 µM (inactive) | 17.7 µM (inactive) | 19.4 µM (inactive) | 16.3 µM (inactive)
8 | CC(=O)O/C(C)=C\C(=O)O/N=C(\N)c1ccc(C)cc1 | – | 19.5 µM (inactive) | 43.7 µM (inactive) | 27.9 µM (inactive) | 22 µM (inactive) | 22.2 µM (inactive) | 26.2 µM (inactive) | 17.3 µM (inactive) | 27.4 µM (inactive) | 92.3 µM (inactive) | > 100 µM (inactive) | 63.8 µM (inactive) | 41.8 µM (inactive) | 28.1 µM (inactive) | 36.6 µM (inactive)
